System: tobacco budworm (Heliothis virescens [Fabricius])
Test: surface-treated diet test against the tobacco budworm
Format: in vivo
Conditions: tobacco budworm second instar larvae, 0.25 millimoles of candidate insecticide on the surface of the diet, five-day exposure; for Percent Mortality: compared to total number of insects infested; for Percent Growth Inhibition: inhibition of insect weight relative to untreated controls
Summary of the method: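 Wheat germ artificial diet surface-treated with 40 µL of 50 mM DMSO stock diluted 1:7 in 1:1 water/acetone (0.25 millimolar on diet), or sub-multiples for rate tests. One second-instar larva per well, 25° C, 60% RH, 5 days; percent weight inhibition vs DMSO controls and percent mortality.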

| Structure (SMILES) | Percent Mortality (surface-treated diet) [%] | Percent Growth Inhibition (surface-treated diet) [%] | Percent Mortality [%] | Percent Growth Inhibition [%] |
| --- | --- | --- | --- | --- |
| CCN(CC)S(=O)(=O)c1ccc(CN2CCC(C(OC(=O)Nc3cc(F)cc(F)c3)c3ccc(C(F)(F)F)cc3)CC2)cc1 (stereo not drawn) [Compound 541] | 0 | 59 | – | – |
| O=C(Nc1cccnc1Cl)OC(c1ccc(C(F)(F)F)cc1)C1CCN(Cc2ccc(Oc3ccccn3)cc2)CC1 (stereo not drawn) [Compound 447] | 100 | 100 | – | – |
| O=C(Nc1ccccc1)OC(c1ccc(C(F)(F)F)cc1)C1CCN(Cc2ccc(Oc3ccccn3)cc2)CC1 (stereo not drawn) [Compound 657] | 100 | 100 | – | – |
| Cn1nnc(-c2ccc(CN3CCC(C(OC(=O)Nc4ccccc4F)c4ccc(OC(F)(F)F)cc4)CC3)cc2)n1 (stereo not drawn) [Compound 272] | 99 | 100 | – | – |
| O=C(Nc1ccc(F)cc1)OC(c1ccc(Cl)c(Cl)c1)C1CCN(Cc2ccc(Oc3ncccn3)cc2)CC1 (stereo not drawn) [Compound 722] | – | – | 83 | 100 |
| CCON=Cc1ccc(CN2CCC(C(OC(=O)Nc3ccc(Cl)cc3Cl)c3ccc(C(F)(F)F)cc3)CC2)cc1 (stereo not drawn) [Compound 190] | 100 | 100 | – | – |
| CCn1nnc(-c2ccc(CN3CCC(C(OC(=O)Nc4cc(F)cc(F)c4)c4ccc(-c5ccccc5)cc4)CC3)cc2)n1 (stereo not drawn) [Compound 614] | 16 | 99 | – | – |
| COc1ccccc1C(=O)Nc1ccc(CN2CCC(C(OC(=O)Nc3cc(F)cc(F)c3)c3ccc(C(F)(F)F)cc3)CC2)cc1 (stereo not drawn) [Compound 553] | 100 | 100 | – | – |
| O=C(Nc1cccc(C(F)(F)F)c1)OC(c1ccc(Cl)c(Cl)c1)C1CCN(Cc2ccc(Oc3ncccn3)cc2)CC1 (stereo not drawn) [Compound 724] | – | – | 100 | 100 |
| Cn1nnc(-c2ccc(CN3CCC(C(OC(=O)Nc4ccc(OC(F)(F)F)cc4)c4ccc(OC(F)(F)F)cc4)CC3)cc2)n1 (stereo not drawn) [Compound 294] | 100 | 100 | – | – |
| CNC(=O)Oc1ccc(C[N+]2([O-])CCC(=C(c3ccc(Cl)cc3)c3ccc(Cl)cc3)CC2)cc1 (stereo not drawn) [Compound 827] | – | – | 100 | 100 |
| COc1ccc(NC(=O)OC(c2ccc(C(F)(F)F)cc2)C2CCN(Cc3ccc(Oc4ccccn4)cc3)CC2)cc1F (stereo not drawn) [Compound 700] | 100 | 100 | – | – |
| O=C(Nc1ccc(Cl)cc1)OC(c1ccc(Cl)c(Cl)c1)C1CCN(Cc2ccc(Oc3ncccn3)cc2)CC1 (stereo not drawn) [Compound 721] | – | – | 100 | 100 |
| O=C(Nc1cc(F)cc(F)c1)OC(c1ccc(C(F)(F)F)cc1)C1CCN(Cc2ccc(NC(=O)c3ccccc3Cl)cc2)CC1 (stereo not drawn) [Compound 550] | 100 | 100 | – | – |
| O=C(Nc1ccc(C(F)(F)F)cc1)OC(c1ccc(Cl)c(Cl)c1)C1CCN(Cc2ccc(Oc3ccccn3)cc2)CC1 (stereo not drawn) [Compound 651] | 100 | 100 | – | – |
| FC(F)(F)c1ccc(C(=C2CCN(Cc3ccc(Oc4ccccc4)nc3)CC2)c2ccc(C(F)(F)F)cc2)cc1 [Compound 858] | – | – | 17 | 99 |
| O=C(NCc1ccc(F)cc1)OC(c1ccc(C(F)(F)F)cc1)C1CCN(Cc2ccc(Oc3ccccn3)cc2)CC1 (stereo not drawn) [Compound 676] | 100 | 100 | – | – |
| N#Cc1ccc(Oc2ccc(CN3CCC(C(OC(=O)Nc4ccc(Cl)cc4)c4ccc(C(F)(F)F)cc4)CC3)cc2)nc1 (stereo not drawn) [Compound 671] | 100 | 100 | – | – |

| Structure (SMILES) | Percent Mortality (surface-treated diet) [%] | Percent Growth Inhibition (surface-treated diet) [%] | Percent Mortality [%] | Percent Growth Inhibition [%] |
| --- | --- | --- | --- | --- |
| CN(C(=O)OC(c1ccc(Cl)cc1)C1CCN(Cc2ccc(Oc3ccccn3)cc2)CC1)c1ccc(C(F)(F)F)cc1 (stereo not drawn) [Compound 636] | 100 | 100 | – | – |
| O=C(NC1CCCCC1)OC(c1ccc(C(F)(F)F)cc1)C1CCN(Cc2ccc(Oc3ccccn3)cc2)CC1 (stereo not drawn) [Compound 432] | 100 | 100 | – | – |
| CCn1nnc(-c2ccc(CN3CCC(C(OC(=O)Nc4cc(F)cc(C(F)(F)F)c4)c4ccccc4)CC3)cc2)n1 (stereo not drawn) [Compound 566] | 100 | 100 | – | – |
| CCON=Cc1ccc(CN2CCC(C(OC(=O)Nc3ccc(Cl)c(Cl)c3)c3ccc(C(F)(F)F)cc3)CC2)cc1 (stereo not drawn) [Compound 189] | 100 | 100 | – | – |
| C#CCON=Cc1ccc(C[N+]2([O-])CCC(C(OC(=O)Nc3cc(F)cc(F)c3)c3ccc(C(F)(F)F)cc3)CC2)cc1 (stereo not drawn) [Compound 744] | – | – | 100 | 100 |
| CCON=Cc1ccc(CN2CCC(C(OC(=O)Nc3ccc(F)cc3F)c3ccc(C(F)(F)F)cc3)CC2)cc1 (stereo not drawn) [Compound 193] | 100 | 100 | – | – |
| CCn1nnc(-c2ccc(CN3CCC(C(OC(=O)Nc4cc(F)cc(F)c4)c4cccc(F)c4)CC3)cc2)n1 (stereo not drawn) [Compound 585] | 100 | 100 | – | – |
| CCn1nnc(-c2ccc(CN3CCC(C(OCc4ccc(OC(F)(F)F)cc4)c4ccc(OC(F)(F)F)cc4)CC3)cc2)n1 (stereo not drawn) [Compound 305] | 100 | 95 | – | – |
| O=C(Nc1cc(F)cc(F)c1)OC(c1ccc(OC(F)(F)F)cc1)C1CCN(Cc2ccc(Oc3cccc[n+]3[O-])cc2)CC1 (stereo not drawn) [Compound 709] | – | – | 100 | 100 |
| CNC(=O)Oc1ccc(CN2CCC(C(OC(=O)Nc3ccccc3)c3ccc(C(F)(F)F)cc3)CC2)cc1 (stereo not drawn) [Compound 521] | 100 | 100 | – | – |
| FC(F)(F)c1ccc(C(Oc2ccc(C(F)(F)F)cn2)C2CCN(Cc3ccc(Oc4ccc(Cl)nn4)cc3)CC2)cc1 (stereo not drawn) [Compound 440] | 100 | 100 | – | – |
| Cn1nnc(-c2ccc(CN3CCC(C(NC(=O)Oc4ccc(I)cc4)c4ccc(OC(F)(F)F)cc4)CC3)cc2)n1 (stereo not drawn) [Compound 354] | 100 | 100 | – | – |
| [O-][N+]1(Cc2ccc(Oc3ccccc3F)cc2)CCC(=C(c2ccc(C(F)(F)F)cc2)c2ccc(C(F)(F)F)cc2)CC1 (stereo not drawn) [Compound 839] | – | – | 100 | 100 |
| CCn1nnc(-c2ccc(CN3CCC(C(OC(=O)Nc4ccc(Cl)cc4)c4ccc(Oc5ccccc5)cc4)CC3)cc2)n1 (stereo not drawn) [Compound 616] | 100 | 100 | – | – |
| Cn1nnc(-c2ccc(C[N+]3([O-])CCC(C(OC(=O)Nc4ccc(OC(F)(F)F)cc4)c4ccc(OC(F)(F)F)cc4)CC3)cc2)n1 (stereo not drawn) [Compound 404] | 100 | 100 | – | – |
| [O-][N+]1(Cc2ccc(Oc3ccccn3)cc2)CCC(=C(c2ccc(F)cc2)c2ccc(F)cc2)CC1 (stereo not drawn) [Compound 842] | – | – | 100 | 100 |
| O=C(Nc1ccc(C(F)(F)F)cc1)OC(c1ccc(F)cc1)C1CCN(Cc2ccc(Oc3ccccn3)cc2)CC1 (stereo not drawn) [Compound 643] | 100 | 100 | – | – |
| CC(C)OC(=O)Nc1ccc(C[N+]2([O-])CCC(=C(c3ccc(Cl)cc3)c3ccc(Cl)cc3)CC2)cc1 (stereo not drawn) [Compound 831] | – | – | 100 | 100 |

From patent publication US7300946B2, “N-(substituted arylmethyl)-4-(disubstituted methyl) piperidines and pyridines” (Bayer CropScience AG, priority 2002, dated 2007)
